# Laboratory results published in PubChem BioAssay (NCI).
#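 In this assay, cells in 96-well plates receive the compound at five concentrations for 48 hours. Endpoints are linearly interpolated between the surrounding concentrations. At the TGI there is no net growth.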
# Assays:
# Assay in all cases: NCI tumour cell line growth inhibition, 48 h
# CAKI-1 renal = system: CAKI-1 renal
# NCI-H226 lung = system: NCI-H226 lung
# SK-MEL-5 melanoma = system: SK-MEL-5 melanoma
# 786-0 renal = system: 786-0 renal
# PC-3 prostate = system: PC-3 prostate
# SF-539 CNS = system: SF-539 CNS
# HCT-116 colon = system: HCT-116 colon
# UACC-257 melanoma = system: UACC-257 melanoma
# MDA-N = system: MDA-N
# OVCAR-3 ovarian = system: OVCAR-3 ovarian
# DU-145 prostate = system: DU-145 prostate
# MDA-MB-231 breast = system: MDA-MB-231 breast
# NCI-H460 lung = system: NCI-H460 lung
Compound,TGI (CAKI-1 renal) [µM],TGI (NCI-H226 lung) [µM],TGI (SK-MEL-5 melanoma) [µM],TGI (786-0 renal) [µM],TGI (PC-3 prostate) [µM],TGI (SF-539 CNS) [µM],TGI (HCT-116 colon) [µM],TGI (UACC-257 melanoma) [µM],TGI (MDA-N) [µM],TGI (OVCAR-3 ovarian) [µM],TGI (DU-145 prostate) [µM],TGI (MDA-MB-231 breast) [µM],TGI (NCI-H460 lung) [µM]
Cc1ncn(-c2ccccc2O)c1C,> 100,> 100,> 100,> 100,> 100,> 100,> 100,> 100,> 100,> 100,> 100,> 100,–
NS(=O)(=O)c1ccc(NC(=O)N/N=C/c2ccccc2[N+](=O)[O-])cc1,> 100,> 100,> 100,> 100,> 100,> 100,> 100,> 100,39,> 100,> 100,> 100,> 100
Cc1nc(OCc2ccccc2)c2ncn(CCO)c2n1,> 100,> 100,> 100,> 100,> 100,> 100,> 100,> 100,> 100,> 100,> 100,> 100,> 100
COC1OC2COC1(OCc1ccccc1)C1OC(C)(C)OC21 (stereo unspecified),> 100,> 100,> 100,> 100,> 100,–,> 100,> 100,> 100,> 100,> 100,> 100,> 100
Nc1ncnc2c1ncn2[C@H]1C=C[C@@H](NO)C1,> 100,> 100,> 100,> 100,> 100,> 100,> 100,> 100,> 100,> 100,> 100,> 100,> 100
CC1C(C)(C)C23CC12C1(OCCO1)C3Br (stereo unspecified),> 100,> 100,> 100,> 100,> 100,> 100,> 100,> 100,> 100,> 100,> 100,> 100,> 100
S=C(NCc1ccccc1)Nc1sc(=NCc2ccccc2)nc2sc3c(c12)CCN(N1CCc2c(sc4nc(=NCc5ccccc5)sc(NC(=S)NCc5ccccc5)c24)C1)C3,> 75.9,99.7,> 100,> 40.9,> 49.8,> 45.9,> 54.2,> 78.4,> 58.2,> 100,> 90.8,> 44,> 83.9
COC(NC(=O)Nc1ccc(C)cc1)(C(F)(F)F)C(F)(F)F,–,> 100,30.6,> 100,> 100,> 100,> 100,–,94.6,> 100,> 100,99,> 100
COC(=O)c1cc2c(c(C(=O)OC)c1)CCC2,> 100,–,> 100,> 100,> 100,> 100,> 100,> 100,> 100,> 100,> 100,> 100,> 100
CCCCSC1=N/C(=C\c2ccccc2O)C(=O)N1,> 100,> 100,–,> 100,92.6,> 100,> 100,> 100,> 100,> 100,> 100,> 100,> 100
COc1ccc(/C=C2\N=C(N3CCCC(CO)C3)NC2=O)cc1 (stereo unspecified),> 100,> 100,> 100,> 100,> 100,> 100,> 100,> 100,> 100,> 100,> 100,> 100,–
NCC(=O)Nc1ccccc1,> 100,> 100,> 100,> 100,> 100,–,> 100,> 100,> 100,> 100,> 100,> 100,> 100
COc1ccc(C(=O)/C=C/c2ccc(OCCCCCCCCCCOc3ccc(/C=C/C(=O)c4ccc(OC)cc4)cc3)cc2)cc1,> 100,> 100,> 100,> 100,> 100,> 100,> 100,> 100,> 100,–,> 100,> 100,> 100
Cc1cn(C2CC(n3cc(Cn4ccc(=O)[nH]c4=O)nn3)C(CO)O2)c(=O)[nH]c1=O (stereo unspecified),> 100,> 100,> 100,–,> 100,> 100,> 100,> 100,> 100,> 100,> 100,> 100,–
